Entries after “also recorded” stand apart in the source; their conditions may differ.
Columns and labels:
Nrf2 = Nrf2 response in BMDMs (western blot, target genes); type: cell-based, mouse; settings: 12 h treatment
Method: BMDM were prepared from 6- to 12-week-old mice as described 1 and cultured in RMPI-1640 medium supplemented with 10% fetal bovine serum (FBS), 2 mM L-glutamine, and 100 U/mL penicillin-streptomycin and mouse recombinant M-CSF ([…], Peprotech). For experiments, cells were seeded at concentration 10^6 cells/mL in tissue culture plates of various formats. The cells were treated with DI (250 μM (unless stated otherwise), cat #592498, Sigma), DMF (50 μM (unless stated otherwise), cat #242926, Sigma), 3-(ethoxycarbonyl)but-3-enoic acid (3MI, 5 μM, Aris Pharmaceuticals Inc.), 4-ethoxy-2-methylene-4-oxobutanoic acid (MI, Aris Pharmaceuticals Inc.) for 12 h and activated with lipopolysaccharide (LPS; 100 ng/mL; E. coli 0111:B4, Sigma) for 1 h or as indicated. In some experiments cells were stimulated with combination of LPS (20 ng/mL) and IFN-γ (50 ng/mL; Peprotech). In some experiments cells were treated with α-tocopherol (AT, 10 μM; Sigma), MitoTEMPO (MT, 500 μM; Sigma), N-acetylcysteine (NAC, 1 mM, Sigma), ethylester of GSH (EtGSH; 1 mM, Santa Cruz) or buthionene sulfoximine (BSO, 500 μM, Sigma) alone or in combination with DI for 12 h. […]
Cells were lysed in RIPA Lysis Buffer System (Santa Cruz) and heat-denatured at 95° C. for 5 min in reducing sample buffer (BioRad). […] Non-specific binding was blocked with 5% skim milk (or 5% BSA when phospho-proteins were analyzed), and membranes were probed with primary antibodies specific to Nrf2 (#12721), HO-1 (#70081), IκBζ (mouse specific, #93726), IκBζ(#9244), ATF3 (#D2Y5W), IRAK1 (#4504; sensitivity of IRAK1 detection diminishes upon IRAK1 K63 ubiquitination), phospho-IKK (Ser176/180, #2697), p62/SQSTM1 (#5114), phospho-eIF2α (Ser51, #9721), eIF2α (#5324) from Cell Signaling; GAPDH (sc-25778), IκBα (sc-1643), ATF3 (sc-188), SDHA (sc-166909) from Santa Cruz; NQO1 (ab28947) from Abeam, followed by incubation with anti-rabbit-HRP (1:10,000; sc-2030) or anti-mouse-HRP (1:10,000; sc-2031) from Santa Cruz and Clarity western ECL substrate (Bio-Rad). […]

IκBζ = experiment: Ikb-ζ protein in LPS-stimulated human monocytes (western blot); type: cell-based; settings: human monocytes, DI 12 h, LPS 100 ng/ml
Method: Cells were lysed in RIPA Lysis Buffer System (Santa Cruz) and heat-denatured at 95° C. for 5 min in reducing sample buffer (BioRad). Proteins were separated on 4%-20% polyacrylamide gradient gels (BioRad) and transferred onto 0.45 μm pore size PVDF membranes (Millipore). Non-specific binding was blocked with 5% skim milk (or 5% BSA when phospho-proteins were analyzed), and membranes were probed with primary antibodies specific to Nrf2 (#12721), HO-1 (#70081), IκBζ (mouse specific, #93726), IκBζ(#9244), ATF3 (#D2Y5W), IRAK1 (#4504; sensitivity of IRAK1 detection diminishes upon IRAK1 K63 ubiquitination), phospho-IKK (Ser176/180, #2697), p62/SQSTM1 (#5114), phospho-eIF2α (Ser51, #9721), eIF2α (#5324) from Cell Signaling; GAPDH (sc-25778), IκBα (sc-1643), ATF3 (sc-188), SDHA (sc-166909) from Santa Cruz; NQO1 (ab28947) from Abeam, followed by incubation with anti-rabbit-HRP (1:10,000; sc-2030) or anti-mouse-HRP (1:10,000; sc-2031) from Santa Cruz and Clarity western ECL substrate (Bio-Rad). […]
Blood from healthy donors was acquired from LRS chambers supplied by the Mississippi Valley Regional Blood Center. […] After extensive washes to allow removal of non-adherent cells, monocytes (>95% purity) were harvested, counted and 5×10^5 cells were plated per well in 24-well plates. […]

human CD14+ monocytes = experiment: Cytokine production in LPS-stimulated human monocytes (ELISA); type: cell-based; settings: DI 12 h, LPS 24 h
Method: Cytokines in cell supernatants were analyzed using DuoSet® ELISA kits according to manufacturer protocol (R&D Systems). The supernatants from BMDMs were diluted 1:4, from human blood monocytes 1:3.
Blood from healthy donors was acquired from LRS chambers supplied by the Mississippi Valley Regional Blood Center. Peripheral blood mononuclear cells (PBMCs) from buffy coats were recovered from the Ficoll interface after a 400 g centrifugation for 30 min. Monocytes were isolated by adherence on a cell culture dish for 1 h at 37° C. and 5% C02 in RPMI containing 1% Human Serum Albumin (Albutein, Grifols, Spain). After extensive washes to allow removal of non-adherent cells, monocytes (>95% purity) were harvested, counted and 5×10^5 cells were plated per well in 24-well plates. The cells were treated with DI (125 μM if not stated otherwise) for 12 h and stimulated with LPS (100 ng/mL) for 1 h or as indicated. In some experiments cells were treated with DI in presence of EtGSH (1 mM, Santa Cruz).

[1] = system: imiquimod-induced psoriasis-like skin inflammation; experiment: IMQ-induced psoriasis mouse model; type: in vivo; settings: DI daily i.p.
Method: RNA from cultured cells was isolated using a Total RNA I kit (OMEGA). RNA from mouse ear skin was extracted using RNAeasy mini kit (Qiagen) after tissue disruption with sterile zirconium beads on a MagNA Lyser (Roche). Isolated RNA was reverse transcribed using AffinityScript Multi-Temp reverse transcriptase (Agilent Technologies) according to the manufacturer's protocol. Reactions were performed in 96-well plates using a SYBR Green PCR Master mix (Thermo Fisher Scientific) using a LightCycler® 96 or LightCycler® 480 (Roche Diagnostics). All assays were performed at least in duplicates, and reaction mixtures in 20 μL volumes (96-plate) or 10 μL volumes (384-plate) were processed under the following cycling conditions: initial 10 min denaturation at 95° C., followed by 40 cycles at 95° C. for 10 s, 60° C. for 1 min. Threshold cycle (CT) values for each sample were determined by automated threshold analysis. Expression levels of all mRNAs were normalized to reference gene Actb in BMDMs or to Rpl19 in mouse keratinocytes and tissue samples; to ACTB in human blood monocytes or RPLP0 in human keratinocytes. […] Average ear thickness in each sample was quantified from images obtained at the identical settings using ImageJ. Thickness at 5 equidistant places in each image was quantified and mean of these values was used to represent results in each mouse.

C=C(CC(=O)OC)C(=O)OC [DI, dimethyl itaconate]
Nrf2 response (Nrf2 protein, target genes) (Nrf2): triggered strong Nrf2 response; also recorded: increased
LPS-induced Ikb-ζ protein levels (IκBζ): decreased Ikb-ζ protein levels; also recorded: completely abolished
LPS-induced cytokine production (human CD14+ monocytes): inhibition of cytokine production
IκBζ target gene expression (Defb4, S100a9, S100a7a, Lcn2) in ear skin ([1]; IMQ 7 days, qPCR): markedly reduced
psoriatic skin pathology ([1]; IMQ topically on ears 7 days): significant improvement of the psoriatic pathology; also recorded: no detectable skin changes

— patent US20200375929A1, “METHODS AND COMPOSITIONS FOR THE TREATMENT OF DISEASES ASSOCIATED WITH CANCER, INFLAMMATION, OR IMMUNE RESPONSE” (Washington University, priority 2017, published 2020)
